Test results reported in patent US20230292776A1, “GAS PHASE TREATMENT OF PRODUCE” (priority 2022, published 2023).

System: Botrytis cinerea (Bc)
Assay: Antifungal activity of AITC vapor and coating agent against Botrytis cinerea (Bc) in strawberries
Type: in vivo
Settings: 30 minutes
Protocol: Example 13. The antifungal activity of AITC vapor against Bc in strawberries was tested. All samples were wounded by making a 3 mm deep puncture in the skin. Samples were infected by dispensing 1000 Bc spores suspended in 10 μL of water in the wound. Samples were then incubated at ambient temperature, imaged, and assessed for mold over the following 3 days. The test group consisted of strawberries that were: uninfected and untreated; infected and untreated; and exposed for 30 minutes to the vapor of 125 uL AITC dispensed on Whatman filter paper. […] The infection rates in the initially uninfected sample indicate that the step involving the initial infection of the wound by dispensing the Bc spores may not be necessary to promote infection in the test groups.
Example 14. The antifungal activity of a range of AITC vapor concentrations against Bc in strawberries was tested. Samples were treated by exposure for 30 minutes to the vapor of a range of volumes of AITC disposed on a filter paper disc, then incubated at ambient temperature, imaged, and assessed for mold over the following 6 days. Test groups consisted of strawberries that were untreated and strawberries exposed to the vapor of 62.5 μL, 125 μL, 250 μL, and 500 μL of AITC. […] On day 6, 83% of the untreated control strawberries were infected, 100% of the 62.5 μL AITC dose strawberries were infected, 13% of the 125 μL AITC dose strawberries were infected, and 0% of the 250 and 500 μL AITC dose strawberries were infected. For strawberries incubated at room temperature, all of the AITC doses above 62.5 μL were effective at preventing mold, with doses above 125 μL substantially eliminating mold.
Example 15. The antifungal activity of AITC vapor under different exposure conditions against Bc in strawberries was tested. Test groups consisted of strawberries that were untreated and treated by exposure for 30 minutes to the vapor of 125 μL of AITC disposed on a filter paper disc. Test groups were then incubated in either open or closed containers at 4° C., imaged, and assessed for mold over the following 14 days. […] All samples were free of mold through 7 days. On day 12, 16.7% of the open air controls were infected, 29.2% of closed container controls were infected, and 0% of the AITC treated were infected. On day 14, 33.3% of the open air controls were infected, 41.7% of closed container controls were infected, 0% of the open air AITC treated were infected, and 4.2% of the closed container AITC treated were infected. For strawberries incubated at 4° C., AITC treatment was effective in reducing the incidence of mold over a two week period. While ⅓ of the open air untreated samples were infected, none of the open air AITC-treated were infected. Over 40% of the closed container controls were infected. A single strawberry was infected in the closed container AITC-treated test group.
Example 16. The antifungal activity of AITC vapor against Bc in strawberries treated with a coating agent (95 wt % glyceryl monostearate and 5 wt % sodium stearate) and exposed to vapor in clamshells was tested. Test groups consisted of strawberries that were: untreated; dipped in 40 g/L solution of the coating agent; exposed for 30 minutes to the vapor of 125 μL of AITC disposed on a filter paper disc; and dipped in 40 g/L solution of the coating agent and exposed for 30 minutes to the vapor of 125 μL of AITC disposed on a filter paper disc. Samples were treated, incubated at ambient temperature, imaged, and assessed for mold over the following 4 days. […] On day 3, 52.8% of the controls were infected, 42.1% of the coating agent were infected, 26.3% of the AITC were infected, and 9.3% of the coating agent+AITC were infected. On day 4, 88.9% of the controls were infected, 76.3% of the coating agent were infected, 71% of the AITC were infected, and 34.9% of the coating agent+AITC were infected. […] Bowl dipping in the coating solution also presented challenges for drying around the calyx.
Example 17. […]

`C=CCN=C=S` [AITC, allyl isothiocyanate] was tested, and the “visible mold on strawberries” value (Example 13, 125 uL, after 24 hours) was “no mold was visible”, the “fraction of samples showing visible mold” value (Example 13, 125 uL, after 48 hours) was “⅛” and the “fraction of samples showing visible mold” value (Example 13, 125 uL, after 72 hours) was “¼”. The strawberries infected (Example 14, 62.5 μL dose, day 6, ambient temperature) was 100%, the strawberries infected (Example 14, 125 μL dose, day 6, ambient temperature) was 13% and the strawberries infected (Example 14, 250 and 500 μL dose, day 6, ambient temperature) was 0%. The strawberries infected (Example 15, 125 μL, 4° C., closed container, day 14) was 4.2%, the strawberries infected (Example 15, 125 μL, 4° C., open air, day 14) was 0% and the strawberries infected (Example 15, 125 μL, incubated at 4° C., day 12) was 0%. The strawberries infected (Example 16, clamshells, coating agent 40 g/L dip, AITC 125 μL, day 3) was 26.3% and the strawberries infected (Example 16, clamshells, coating agent 40 g/L dip, AITC 125 μL, day 4) was 71%.
